Experimental data reported in US10023602B2, “Hamamelitannin analogues and uses thereof” (Universiteit Gent, priority 2014, dated 2018).
pEC50: −log10 of the molar value.

How the values were obtained:
[1] = system: methicillin resistant S. aureus Mu50 strain (S. aureus ATCC700699) biofilm; test: Biofilm susceptibility to vancomycin, combination treatment regimen (mature biofilm treated with compound plus vancomycin); type: cell-based; details: for Combin. (100 μM): percentage Colony Forming Units (CFU's) per biofilm: compound 100 μM together with VAN 20 μg/ml on mature biofilm; for Combin. (100 μM): percentage Colony Forming Units (CFU's) per biofilm / Combin. (25 μM): percentage Colony Forming Units (CFU's) per biofilm: compared to the untreated (negative) control; for pEC50: concentration needed to get 50% killing compared to antibiotic alone (VAN 20 μg/ml) and complete killing, read-out: Combin. (EC50); for Combin. (25 μM): percentage Colony Forming Units (CFU's) per biofilm: compound 25 μM together with VAN 20 μg/ml on mature biofilm
Method in brief: (§1)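 Mu50 biofilms from 10^8 CFU/ml inoculum (4 h adhesion, then 20 h, 37 °C). Pre-treatment: compound (0.1-250 μM) present during biofilm formation, then vancomycin 20 μg/ml alone 24 h; combination: mature biofilm given vancomycin 20 μg/ml plus compound 24 h. Survivors counted by plating versus vancomycin alone.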

[2] = system: methicillin resistant S. aureus Mu50 strain (S. aureus ATCC700699) biofilm; test: Biofilm susceptibility to vancomycin, pre-treatment regimen (biofilm formed in presence of compound, then vancomycin); type: cell-based; details: for Pretreat (100 μM): percentage Colony Forming Units (CFU's) per biofilm: compound 100 μM during biofilm formation; for Pretreat (100 μM): percentage Colony Forming Units (CFU's) per biofilm / Pretreat. (25 μM): percentage Colony Forming Units (CFU's) per biofilm: then VAN 20 μg/ml, compared to the untreated (negative) control; for pEC50: concentration needed to get 50% killing compared to antibiotic alone (VAN 20 μg/ml) and complete killing, read-out: Pretreat. (EC50); for Pretreat. (25 μM): percentage Colony Forming Units (CFU's) per biofilm: compound 25 μM during biofilm formation
Method in brief: as §1

Compound: O=C(NC[C@]1(O)CO[C@H](CNC(=O)c2ccccc2Br)[C@H]1O)c1ccccc1 [compound 178, N-(((2R,3R,4S)-4-(benzamidomethyl)-3,4-dihydroxytetrahydrofuran-2-yl)methyl)-2-bromobenzamide]
- Combin. (100 μM): percentage Colony Forming Units (CFU's) per biofilm [1]: 17.51 percentage
- pEC50 [1]: 4.70
- Pretreat (100 μM): percentage Colony Forming Units (CFU's) per biofilm [2]: 4.10 percentage
- pEC50 [2]: 5.01

Compound: O=C(NC[C@]1(O)CO[C@H](CNC(=O)c2ccccc2Cl)[C@H]1O)c1cncnc1 [compound 248, N-(((3S,4R,5R)-5-((2-chlorobenzamido)methyl)-3,4-dihydroxytetrahydrofuran-3-yl)methyl)pyrimidine-5-carboxamide]
- Combin. (25 μM): percentage Colony Forming Units (CFU's) per biofilm [1]: 65.41 percentage
- Pretreat. (25 μM): percentage Colony Forming Units (CFU's) per biofilm [2]: 64.01 percentage

Compound: O=C(NC[C@]1(O)CO[C@H](CNC(=O)c2ccccc2Cl)[C@H]1O)c1cccnc1 [compound 243, N-(((3S,4R,5R)-5-((2-chlorobenzamido)methyl)-3,4-dihydroxytetrahydrofuran-3-yl)methyl)nicotinamide]
- Combin. (25 μM): percentage Colony Forming Units (CFU's) per biofilm [1]: 51.83 percentage
- Pretreat. (25 μM): percentage Colony Forming Units (CFU's) per biofilm [2]: 85.00 percentage

Compound: O=C(NC[C@H]1OC[C@@](O)(CNC(=O)c2ccnnc2)[C@@H]1O)c1ccnnc1 [compound 257, N,N′-(((2R,3R,4S)-3,4-dihydroxytetrahydrofuran-2,4-diyl)bis(methylene))bis(pyridazine-4-carboxamide)]
- Combin. (100 μM): percentage Colony Forming Units (CFU's) per biofilm [1]: 17.13 percentage
- pEC50 [1]: 4.75
- Pretreat (100 μM): percentage Colony Forming Units (CFU's) per biofilm [2]: 1.71 percentage
- pEC50 [2]: 5.15

Compound: O=C(NC[C@]1(O)CO[C@H](CNC(=O)c2ccccc2Cl)[C@H]1O)c1ccncc1 [compound 239, N-(((3S,4R,5R)-5-((2-chlorobenzamido)methyl)-3,4-dihydroxytetrahydrofuran-3-yl)methyl)isonicotinamide]
- Combin. (25 μM): percentage Colony Forming Units (CFU's) per biofilm [1]: 58.76 percentage
- Pretreat. (25 μM): percentage Colony Forming Units (CFU's) per biofilm [2]: 49.98 percentage

Compound: O=C(Cc1ccccc1)NC[C@]1(O)CO[C@H](CNC(=O)c2ccccc2Cl)[C@H]1O [compound 259, 2-chloro-N-(((2R,3R,4S)-3,4-dihydroxy-4-((2-phenylacetamido)methyl)tetrahydrofuran-2-yl)methyl)benzamide]
- Combin. (100 μM): percentage Colony Forming Units (CFU's) per biofilm [1]: 71.25 percentage
- Pretreat (100 μM): percentage Colony Forming Units (CFU's) per biofilm [2]: 55.12 percentage

Compound: O=C(NC[C@H]1OC[C@@](O)(CNC(=O)c2cc(O)c(O)c(O)c2)[C@@H]1O)c1cc(O)c(O)c(O)c1 [compound 264, N,N′-(((2R,3R,4S)-3,4-dihydroxytetrahydrofuran-2,4-diyl)bis(methylene))bis(3,4,5-trihydroxybenzamide)]
- Combin. (100 μM): percentage Colony Forming Units (CFU's) per biofilm [1]: 57.74 percentage
- pEC50 [1]: 3.72
- Pretreat (100 μM): percentage Colony Forming Units (CFU's) per biofilm [2]: 22.35 percentage
- pEC50 [2]: 4.20

Compound: COc1ccccc1C(=O)NC[C@H]1OC[C@@](O)(CNC(=O)c2ccccc2)[C@@H]1O [compound 172, N-(((2R,3R,4S)-4-(benzamidomethyl)-3,4-dihydroxytetrahydrofuran-2-yl)methyl)-2-methoxybenzamide]
- Combin. (100 μM): percentage Colony Forming Units (CFU's) per biofilm [1]: 31.40 percentage
- Pretreat (100 μM): percentage Colony Forming Units (CFU's) per biofilm [2]: 15.37 percentage

Compound: O=C(NC[C@H]1OC[C@@](O)(CNC(=O)c2ccccc2)[C@@H]1O)c1ccccc1 [compound 188, N,N′-(((2R,3R,4S)-3,4-dihydroxytetrahydrofuran-2,4-diyl)bis(methylene))dibenzamide]
- Combin. (100 μM): percentage Colony Forming Units (CFU's) per biofilm [1]: 34.64 percentage
- Pretreat (100 μM): percentage Colony Forming Units (CFU's) per biofilm [2]: 34.36 percentage

Compound: O=C(NC[C@]1(O)CO[C@H](CNC(=O)c2c(Cl)cncc2Cl)[C@H]1O)c1ccccc1 [compound 195, N-(((2R,3R,4S)-4-(benzamidomethyl)-3,4-dihydroxytetrahydrofuran-2-yl)methyl)-3,5-dichloroisonicotinamide]
- Combin. (100 μM): percentage Colony Forming Units (CFU's) per biofilm [1]: 18.55 percentage
- pEC50 [1]: 5.03
- Pretreat (100 μM): percentage Colony Forming Units (CFU's) per biofilm [2]: 18.31 percentage
- pEC50 [2]: 5.14

Compound: O=C(NC[C@]1(O)CO[C@H](CNC(=O)c2ccccc2Cl)[C@H]1O)c1ccnnc1 [compound 255, N-(((3S,4R,5R)-5-((2-chlorobenzamido)methyl)-3,4-dihydroxytetrahydrofuran-3-yl)methyl)pyridazine-4-carboxamide]
- Combin. (100 μM): percentage Colony Forming Units (CFU's) per biofilm [1]: 25.78 percentage
- pEC50 [1]: 4.25
- Pretreat (100 μM): percentage Colony Forming Units (CFU's) per biofilm [2]: 8.03 percentage
- pEC50 [2]: 4.83

Compound: O=C(NC[C@]1(O)CO[C@H](CNC(=O)c2ccccc2C(F)(F)F)[C@H]1O)c1ccccc1 [compound 175, N-(((2R,3R,4S)-4-(benzamidomethyl)-3,4-dihydroxytetrahydrofuran-2-yl)methyl)-2-(trifluoromethyl)benzamide]
- Combin. (100 μM): percentage Colony Forming Units (CFU's) per biofilm [1]: 34.85 percentage
- Pretreat (100 μM): percentage Colony Forming Units (CFU's) per biofilm [2]: 22.48 percentage

Compound: O=C(NC[C@]1(O)CO[C@H](CNC(=O)c2ccccc2Cl)[C@H]1O)c1ccc(F)cc1 [compound 233, 2-chloro-N-(((2R,3R,4S)-4-((4-fluorobenzamido)methyl)-3,4-dihydroxytetrahydrofuran-2-yl)methyl)benzamide]
- Combin. (25 μM): percentage Colony Forming Units (CFU's) per biofilm [1]: 91.63 percentage
- Pretreat. (25 μM): percentage Colony Forming Units (CFU's) per biofilm [2]: 88.61 percentage

Compound: CN(C)c1ccc(C(=O)NC[C@]2(O)CO[C@H](CNC(=O)c3ccccc3Cl)[C@H]2O)cc1 [compound 237, 2-chloro-N-(((2R,3R,4S)-4-((4-(dimethylamino)benzamido)methyl)-3,4-dihydroxytetrahydrofuran-2-yl)methyl)benzamide]
- Combin. (25 μM): percentage Colony Forming Units (CFU's) per biofilm [1]: 47.56 percentage
- pEC50 [1]: 4.16
- Pretreat. (25 μM): percentage Colony Forming Units (CFU's) per biofilm [2]: 58.79 percentage
- pEC50 [2]: 4.32

Compound: N#Cc1cccc(C(=O)NC[C@H]2OC[C@@](O)(CNC(=O)c3ccccc3)[C@@H]2O)c1 [compound 164, N-(((2R,3R,4S)-4-(benzamidomethyl)-3,4-dihydroxytetrahydrofuran-2-yl)methyl)-3-cyanobenzamide]
- Combin. (100 μM): percentage Colony Forming Units (CFU's) per biofilm [1]: 14.49 percentage
- Pretreat (100 μM): percentage Colony Forming Units (CFU's) per biofilm [2]: 22.11 percentage

Compound: Cc1ccccc1C(=O)NC[C@H]1OC[C@@](O)(CNC(=O)c2ccccc2)[C@@H]1O [compound 169, N-(((2R,3R,4S)-4-(benzamidomethyl)-3,4-dihydroxytetrahydrofuran-2-yl)methyl)-2-methylbenzamide]
- Combin. (100 μM): percentage Colony Forming Units (CFU's) per biofilm [1]: 13.87 percentage
- pEC50 [1]: 4.28
- Pretreat (100 μM): percentage Colony Forming Units (CFU's) per biofilm [2]: 11.68 percentage
- pEC50 [2]: 4.86

Compound: O=C(NC[C@]1(O)CO[C@H](CNC(=O)c2ccc(Cl)nc2Cl)[C@H]1O)c1ccccc1 [compound 197, N-(((2R,3R,4S)-4-(benzamidomethyl)-3,4-dihydroxytetrahydrofuran-2-yl)methyl)-2,6-dichloronicotinamide]
- Combin. (100 μM): percentage Colony Forming Units (CFU's) per biofilm [1]: 16.84 percentage
- pEC50 [1]: 5.08
- Pretreat (100 μM): percentage Colony Forming Units (CFU's) per biofilm [2]: 18.75 percentage
- pEC50 [2]: 5.10

Compound: O=C(NC[C@H]1OC[C@@](O)(CNC(=O)c2ccccc2)[C@@H]1O)c1ccc(C(F)(F)F)cc1 [compound 157, N-(((2R,3R,4S)-4-(benzamidomethyl)-3,4-dihydroxytetrahydrofuran-2-yl)methyl)-4-(trifluoromethyl)benzamide]
- Combin. (100 μM): percentage Colony Forming Units (CFU's) per biofilm [1]: 11.25 percentage
- Pretreat (100 μM): percentage Colony Forming Units (CFU's) per biofilm [2]: 15.95 percentage

Compound: COc1ccc(C(=O)NC[C@]2(O)CO[C@H](CNC(=O)c3ccccc3Cl)[C@H]2O)cc1 [compound 235, 2-chloro-N-(((2R,3R,4S)-3,4-dihydroxy-4-((4-methoxybenzamido)methyl)tetrahydrofuran-2-yl)methyl)benzamide]
- Combin. (25 μM): percentage Colony Forming Units (CFU's) per biofilm [1]: 57.35 percentage
- Pretreat. (25 μM): percentage Colony Forming Units (CFU's) per biofilm [2]: 66.10 percentage

Compound: O=C(NC[C@H]1OC[C@@](O)(CNC(=O)c2ccnnc2)[C@@H]1O)c1ccc(-c2ccccc2)cc1 [compound 256, N-(((3S,4R,5R)-5-([1,1′-biphenyl]-4-carboxamidomethyl)-3,4-dihydroxytetrahydrofuran-3-yl)methyl)pyridazine-4-carboxamide]
- Combin. (100 μM): percentage Colony Forming Units (CFU's) per biofilm [1]: 29.97 percentage
- pEC50 [1]: 4.27
- Pretreat (100 μM): percentage Colony Forming Units (CFU's) per biofilm [2]: 14.25 percentage
- pEC50 [2]: 4.81

Compound: O=C(NC[C@]1(O)CO[C@H](CN2C(=O)c3ccccc3C2=O)[C@H]1O)c1ccnnc1 [compound 258, N-(((3S,4R,5R)-5-((1,3-dioxoisoindolin-2-yl)methyl)-3,4-dihydroxytetrahydrofuran-3-yl)methyl)pyridazine-4-carboxamide]
- Combin. (100 μM): percentage Colony Forming Units (CFU's) per biofilm [1]: 23.56 percentage
- pEC50 [1]: 4.94
- Pretreat (100 μM): percentage Colony Forming Units (CFU's) per biofilm [2]: 0.73 percentage
- pEC50 [2]: 5.23

Compound: O=C(NC[C@]1(O)CO[C@H](CNC(=S)Nc2ccccc2)[C@H]1O)c1ccccc1 [compound 224, N-(((3S,4R,5R)-3,4-dihydroxy-5-((3-phenylthioureido)methyl)tetrahydrofuran-3-yl)methyl)benzamide]
- Combin. (100 μM): percentage Colony Forming Units (CFU's) per biofilm [1]: 27.33 percentage
- Pretreat (100 μM): percentage Colony Forming Units (CFU's) per biofilm [2]: 20.22 percentage
